Data set [1] concerns rat. Particulars: ratio of LD50 in rat. The source says:
The common stabilizer has danger in the safety in case of excessive use.

In data set [2] the test system is rat. Particulars: cited from earlier work.

As usually defined, the LD50 is the dose expected to kill half of the subjects tested. Consider `CC(=O)N[C@@H](CS)C(=O)O` [N-acetyl cysteine], for which the “Lower toxicity than citric acid” value in data set [1] was found to be 90 times. Besides, the LD50 in data set [2] is 3600 mg/kg.

The values are drawn from US7186751B2, “Injectable composition of paclitaxel” (priority 2001, dated 2007).
